Test results published in patent publication US6936632B2, “Fused pyrrole compounds, pharmaceutical agents containing the same, and the use thereof” (Merckle GmbH, priority 2000, dated 2005).

A melting point of 191 °C was found for CS(=O)(=O)c1ccc(-c2c(-c3ccc(F)cc3)cn3c2CCC3)cc1 in this work. A melting point of 206.9 °C was found for NS(=O)(=O)c1ccc(-c2cc3n(c2-c2ccc(F)cc2)CCC3)cc1 in this work. A melting point of 199.6 °C was found for Cc1c(C(F)(C(F)(F)F)C(F)(F)F)c(-c2ccc(S(N)(=O)=O)cc2)c2n1CCC2 in this work.
